Reference: ChEMBL document CHEMBL1201862, “PubChem BioAssay data set” (2004)
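Exposure lasted 48 hours, with cells grown in 96-well plates and compounds tested at five concentrations. Abbreviation: GI50, concentration required for 50% inhibition of growth.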 Active and inactive are the calls of the source. Cut-off read from the data, not from the text of the source: active = GI50 up to about 1.1 µM and inactive = higher.

What was measured:
Assay in all cases: growth of human tumour cells (NCI), 48 h
SK-MEL-5 = tested on: SK-MEL-5
MDA-MB-231 = tested on: MDA-MB-231
MDA-MB-435 = tested on: MDA-MB-435
HOP-62 = tested on: HOP-62
SN12C = tested on: SN12C
MOLT-4 = tested on: MOLT-4
A498 = tested on: A498
SR = tested on: SR
BT-549 = tested on: BT-549
K562 = tested on: K562
COLO 205 = tested on: COLO 205
SF-539 = tested on: SF-539
OVCAR-3 = tested on: OVCAR-3
A549 = tested on: A549
SK-MEL-2 = tested on: SK-MEL-2
HCT-116 = tested on: HCT-116
UO-31 = tested on: UO-31
786-0 = tested on: 786-0
TK-10 = tested on: TK-10
UACC-62 = tested on: UACC-62
NCI-H522 = tested on: NCI-H522
T47D = tested on: T47D
SK-OV-3 = tested on: SK-OV-3
UACC-257 = tested on: UACC-257
SF-295 = tested on: SF-295
HCC 2998 = tested on: HCC 2998
NCI-H23 = tested on: NCI-H23
CCRF-CEM = tested on: CCRF-CEM
EKVX = tested on: EKVX
IGROV-1 = tested on: IGROV-1
DU-145 = tested on: DU-145
U-251 = tested on: U-251
MCF7 = tested on: MCF7
M14 = tested on: M14
PC-3 = tested on: PC-3
CAKI-1 = tested on: CAKI-1
Malme-3M = tested on: Malme-3M
OVCAR-5 = tested on: OVCAR-5
MDA-N = tested on: MDA-N
HL-60 = tested on: HL-60
RXF 393 = tested on: RXF 393
RPMI-8226 = tested on: RPMI-8226
HT-29 = tested on: HT-29
OVCAR-4 = tested on: OVCAR-4
SW-620 = tested on: SW-620
HOP-92 = tested on: HOP-92
KM12 = tested on: KM12
HCT-15 = tested on: HCT-15
NCI/ADR-RES = tested on: NCI/ADR-RES
SF-268 = tested on: SF-268
SNB-19 = tested on: SNB-19
NCI-H226 = tested on: NCI-H226
Hs-578T = tested on: Hs-578T
NCI-H460 = tested on: NCI-H460
SK-MEL-28 = tested on: SK-MEL-28
OVCAR-8 = tested on: OVCAR-8
LOX IMVI = tested on: LOX IMVI
ACHN = tested on: ACHN

Compound: COc1c(-c2cccs2)oc2c(CC(=O)O)cccc2c1=O
- GI50 (SK-MEL-5): > 100 µM (inactive)
- GI50 (MDA-MB-231): > 100 µM (inactive)
- GI50 (MDA-MB-435): > 100 µM (inactive)
- GI50 (HOP-62): 1.2 µM (inactive)
- GI50 (SN12C): > 100 µM (inactive)
- GI50 (MOLT-4): 56.9 µM (inactive)
- GI50 (A498): 86.3 µM (inactive)
- GI50 (SR): 56 µM (inactive)
- GI50 (BT-549): > 100 µM (inactive)
- GI50 (K562): > 100 µM (inactive)
- GI50 (COLO 205): > 100 µM (inactive)
- GI50 (SF-539): > 100 µM (inactive)
- GI50 (OVCAR-3): > 100 µM (inactive)
- GI50 (A549): > 100 µM (inactive)
- GI50 (SK-MEL-2): > 100 µM (inactive)
- GI50 (HCT-116): > 100 µM (inactive)
- GI50 (UO-31): 10.3 µM (inactive)
- GI50 (786-0): > 100 µM (inactive)
- GI50 (TK-10): > 100 µM (inactive)
- GI50 (UACC-62): > 100 µM (inactive)
- GI50 (NCI-H522): > 100 µM (inactive)
- GI50 (T47D): > 100 µM (inactive)
- GI50 (SK-OV-3): > 100 µM (inactive)
- GI50 (UACC-257): > 100 µM (inactive)
- GI50 (SF-295): > 100 µM (inactive)
- GI50 (HCC 2998): > 100 µM (inactive)
- GI50 (NCI-H23): 53.3 µM (inactive)
- GI50 (CCRF-CEM): > 100 µM (inactive)
- GI50 (EKVX): > 100 µM (inactive)
- GI50 (IGROV-1): > 100 µM (inactive)
- GI50 (DU-145): > 100 µM (inactive)
- GI50 (U-251): > 100 µM (inactive)
- GI50 (MCF7): > 100 µM (inactive)
- GI50 (M14): > 100 µM (inactive)
- GI50 (PC-3): > 100 µM (inactive)
- GI50 (CAKI-1): > 100 µM (inactive)
- GI50 (Malme-3M): > 100 µM (inactive)
- GI50 (OVCAR-5): > 100 µM (inactive)
- GI50 (MDA-N): > 100 µM (inactive)
- GI50 (HL-60): 0.0702 µM (active)
- GI50 (RXF 393): > 100 µM (inactive)
- GI50 (RPMI-8226): 0.23 µM (active)

Compound: Cc1ccc(C(=O)N/N=C(\N=N\c2cccc([N+](=O)[O-])c2)c2ccc(N(C)C)cc2)cc1
- GI50 (SK-MEL-5): 25.7 µM (inactive)
- GI50 (MDA-MB-231): > 100 µM (inactive)
- GI50 (MDA-MB-435): 24.9 µM (inactive)
- GI50 (HT-29): 46.5 µM (inactive)
- GI50 (OVCAR-4): 24.4 µM (inactive)
- GI50 (SN12C): > 100 µM (inactive)
- GI50 (SW-620): > 100 µM (inactive)
- GI50 (MOLT-4): 14.4 µM (inactive)
- GI50 (BT-549): 47.8 µM (inactive)
- GI50 (K562): 30.3 µM (inactive)
- GI50 (COLO 205): > 100 µM (inactive)
- GI50 (SF-539): > 100 µM (inactive)
- GI50 (HOP-92): > 100 µM (inactive)
- GI50 (OVCAR-3): 34.6 µM (inactive)
- GI50 (A549): > 100 µM (inactive)
- GI50 (KM12): 64.9 µM (inactive)
- GI50 (SK-MEL-2): > 100 µM (inactive)
- GI50 (HCT-116): > 100 µM (inactive)
- GI50 (UO-31): 61.2 µM (inactive)
- GI50 (786-0): > 100 µM (inactive)
- GI50 (TK-10): > 100 µM (inactive)
- GI50 (HCT-15): 50.7 µM
- GI50 (NCI/ADR-RES): 41.8 µM (inactive)
- GI50 (NCI-H522): 37.2 µM (inactive)
- GI50 (SF-268): > 100 µM (inactive)
- GI50 (UACC-257): 58.3 µM (inactive)
- GI50 (SNB-19): 54.5 µM (inactive)
- GI50 (NCI-H226): > 100 µM (inactive)
- GI50 (SF-295): 48.6 µM (inactive)
- GI50 (Hs-578T): > 100 µM (inactive)
- GI50 (HCC 2998): > 100 µM (inactive)
- GI50 (NCI-H23): > 100 µM (inactive)
- GI50 (CCRF-CEM): 35 µM (inactive)
- GI50 (EKVX): 25.2 µM (inactive)
- GI50 (NCI-H460): 57.7 µM (inactive)
- GI50 (IGROV-1): > 100 µM (inactive)
- GI50 (DU-145): 16.6 µM (inactive)
- GI50 (U-251): > 100 µM (inactive)
- GI50 (MCF7): > 100 µM (inactive)
- GI50 (M14): 29.2 µM (inactive)
- GI50 (PC-3): > 100 µM (inactive)
- GI50 (SK-MEL-28): > 100 µM (inactive)
- GI50 (CAKI-1): 68.1 µM (inactive)
- GI50 (OVCAR-5): > 100 µM (inactive)
- GI50 (MDA-N): 20.7 µM (inactive)
- GI50 (HL-60): 27.9 µM (inactive)
- GI50 (OVCAR-8): 97.1 µM (inactive)
- GI50 (RPMI-8226): 61.9 µM (inactive)
- GI50 (LOX IMVI): 99.8 µM (inactive)

Compound: COc1cc2c(cc1OC)C13CCN4CC5=CCOC(CC(=O)O)C(C5CC41)C3N2 (stereo not given)
- GI50 (SK-MEL-5): > 100 µM (inactive)
- GI50 (MDA-MB-231): > 100 µM (inactive)
- GI50 (MDA-MB-435): > 100 µM (inactive)
- GI50 (HT-29): > 100 µM (inactive)
- GI50 (HOP-62): > 100 µM (inactive)
- GI50 (OVCAR-4): > 100 µM (inactive)
- GI50 (SN12C): > 100 µM (inactive)
- GI50 (SW-620): > 100 µM (inactive)
- GI50 (MOLT-4): > 100 µM (inactive)
- GI50 (A498): > 100 µM (inactive)
- GI50 (SR): > 100 µM (inactive)
- GI50 (BT-549): > 100 µM (inactive)
- GI50 (K562): > 100 µM (inactive)
- GI50 (COLO 205): > 100 µM (inactive)
- GI50 (SF-539): > 100 µM (inactive)
- GI50 (HOP-92): 78.3 µM (inactive)
- GI50 (OVCAR-3): > 100 µM (inactive)
- GI50 (A549): > 100 µM (inactive)
- GI50 (KM12): > 100 µM (inactive)
- GI50 (SK-MEL-2): > 100 µM (inactive)
- GI50 (HCT-116): > 100 µM (inactive)
- GI50 (UO-31): > 100 µM (inactive)
- GI50 (786-0): > 100 µM (inactive)
- GI50 (TK-10): > 100 µM (inactive)
- GI50 (UACC-62): > 100 µM (inactive)
- GI50 (HCT-15): > 100 µM
- GI50 (NCI/ADR-RES): > 100 µM (inactive)
- GI50 (NCI-H522): > 100 µM (inactive)
- GI50 (SK-OV-3): > 100 µM (inactive)
- GI50 (SF-268): > 100 µM (inactive)
- GI50 (UACC-257): > 100 µM (inactive)
- GI50 (SNB-19): > 100 µM (inactive)
- GI50 (NCI-H226): > 100 µM (inactive)
- GI50 (SF-295): > 100 µM (inactive)
- GI50 (Hs-578T): > 100 µM (inactive)
- GI50 (NCI-H23): > 100 µM (inactive)
- GI50 (CCRF-CEM): 61.1 µM (inactive)
- GI50 (EKVX): > 100 µM (inactive)
- GI50 (NCI-H460): > 100 µM (inactive)
- GI50 (IGROV-1): > 100 µM (inactive)
- GI50 (U-251): > 100 µM (inactive)
- GI50 (MCF7): > 100 µM (inactive)
- GI50 (M14): > 100 µM (inactive)
- GI50 (PC-3): > 100 µM (inactive)
- GI50 (SK-MEL-28): > 100 µM (inactive)
- GI50 (CAKI-1): > 100 µM (inactive)
- GI50 (Malme-3M): > 100 µM (inactive)
- GI50 (ACHN): > 100 µM (inactive)
- GI50 (OVCAR-5): > 100 µM (inactive)
- GI50 (MDA-N): > 100 µM (inactive)
- GI50 (HL-60): > 100 µM (inactive)
- GI50 (OVCAR-8): > 100 µM (inactive)
- GI50 (RPMI-8226): > 100 µM (inactive)
- GI50 (LOX IMVI): > 100 µM (inactive)
